Patent US4874600A, “No-carrier-added [1^11 c]putrescine” (The United States of America as Represented by the United …, priority 1986, dated 1989)

Assays:
in vivo = settings: mouse
Procedure: Male Swiss albino mice (BNL strain, 20-32 g) were used in this study. No-carrier-added [1-^11 C]putrescine (0.05-0.20 μCi/mouse of specific activity greater than 1.4 Ci/μmol; 36-140 pmol/mouse) was injected by tail vein into mice and the animals were killed by cervical dislocation at the desired time interval (5, 30 and 60 minutes). The various organs were rapidly removed, blotted free of blood and placed in preweighed counting vials and the vials were sealed. Tissue samples as well as injection standards were counted in a Packard automated sodium iodide well counter. Both percent injected dose per gram of tissue and percent injected dose per organ were determined from the decay corrected activity.

transplanted rat glioma = settings: Volkow et al. 1983, cited from earlier work

NCCC[11CH2]N [no-carrier-added [1-^11 C]putrescine, [1-^11 C]putrescine]
accumulation of activity in normal brain compared with other tissues (in words) (in vivo): less in the normal brain than for other tissues | tissues of main uptake (in words) (in vivo): taken up by the liver, kidneys, and small intestine | tissue uptake at 5 min (in vivo; iv): 1.37 ± 0.18 %ID/g | tissue uptake at 0.5 h (in vivo; iv): 0.82 ± 0.11 %ID/g | tissue uptake at 1 h (in vivo; iv): 0.76 ± 0.46 %ID/g | Tissue distribution, Brain (in vivo; iv, 5 min): 0.12 ± 0.01 % Dose/Organ | Tissue distribution, Heart (in vivo; iv, 5 min): 0.19 ± 0.04 % Dose/Organ | Tissue distribution, Kidney (in vivo; iv, 5 min): 10.5 ± 2.0 % Dose/Organ | Tissue distribution, Liver (in vivo; iv, 5 min): 5.96 ± 1.2 % Dose/Organ | Tissue distribution, Lungs (in vivo; iv, 5 min): 0.57 ± 0.08 % Dose/Organ | Tissue distribution, Small Intestine (in vivo; iv, 5 min): 13.7 ± 5.0 % Dose/Organ | Tissue distribution, Spleen (in vivo; iv, 5 min): 0.57 ± 0.35 % Dose/Organ | Tissue distribution, Brain (in vivo; iv, 30 min): 0.15 ± 0.01 % Dose/Organ | Tissue distribution, Heart (in vivo; iv, 30 min): 0.15 ± 0.02 % Dose/Organ | Tissue distribution, Kidney (in vivo; iv, 30 min): 2.63 ± 0.36 % Dose/Organ | Tissue distribution, Liver (in vivo; iv, 30 min): 4.85 ± 0.75 % Dose/Organ | Tissue distribution, Lungs (in vivo; iv, 30 min): 0.48 ± 0.08 % Dose/Organ | Tissue distribution, Small Intestine (in vivo; iv, 30 min): 7.61 ± 2.00 % Dose/Organ | Tissue distribution, Spleen (in vivo; iv, 30 min): 0.56 ± 0.25 % Dose/Organ | Tissue distribution, Brain (in vivo; iv, 60 min): 0.13 ± 0.01 % Dose/Organ | Tissue distribution, Heart (in vivo; iv, 60 min): 0.12 ± 0.01 % Dose/Organ | Tissue distribution, Kidney (in vivo; iv, 60 min): 1.27 ± 0.21 % Dose/Organ | Tissue distribution, Liver (in vivo; iv, 60 min): 3.70 ± 0.50 % Dose/Organ | Tissue distribution, Lungs (in vivo; iv, 60 min): 0.43 ± 0.08 % Dose/Organ | Tissue distribution, Small Intestine (in vivo; iv, 60 min): 4.40 ± 1.66 % Dose/Organ | Tissue distribution, Spleen (in vivo; iv, 60 min): 0.48 ± 0.16 % Dose/Organ

NCCCCN [putrescine]
in vivo uptake into transplanted rat glioma relative to normal brain tissue (transplanted rat glioma; transplanted rat glioma vs normal brain tissue): 35 times greater | metabolism to spermine by the tumor (in words) (transplanted rat glioma; transplanted rat glioma, in contrast to adjacent normal brain tissue): rapid
